Measured values from US8927009B2 (AbbVie Inc., priority 2009, dated 2015).

Assays:
Bcl-XL = Bcl-XL (Homo sapiens, UniProt Q07817); conditions: cited from earlier work
Bcl-2 = Bcl-2 (Homo sapiens, UniProt P10415); conditions: cited from earlier work
Bcl-w = molecular target: T1, Bcl-w (Homo sapiens, UniProt Q92843); conditions: cited from earlier work
T1 sequence (Q92843 1-193): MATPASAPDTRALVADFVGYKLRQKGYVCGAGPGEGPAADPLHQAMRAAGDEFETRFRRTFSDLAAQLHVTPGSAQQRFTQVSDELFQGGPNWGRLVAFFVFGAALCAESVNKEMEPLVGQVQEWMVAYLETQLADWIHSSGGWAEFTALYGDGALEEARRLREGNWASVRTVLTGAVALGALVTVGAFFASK

[1] = Solubility in lipid solvents and solvent mixtures in ambient conditions; type: physicochemical; conditions: listed as Parent (Form I)
Method: Solubility of ABT-263 parent (free base, crystalline Form I) and ABT-263 bis-HCl salt was tested in a variety of lipid solvents and solvent mixtures in ambient conditions. Trademarked solvents in this study, unless identified hereinabove, are as follows (substantially equivalent products from other manufacturers can be substituted if available): • Miglyol 810™ of Sasol: caprylic/capric triglycerides; • Capmul MCM™ of Abitec: glyceryl caprylate/caprate; • Captex 300™ of Abitec: caprylic/capric triglycerides; • Labrafil M 2125 CS™ of Gattefossé: polyoxyethylene glyceryl linoleate; • Tween 20™ of Uniqema: polysorbate 20; • Labrasol™ of Gattefossé: polyoxyethylene glyceryl caprylate/caprate; • Cremophor RH40™: polyoxyethyene (40) hydrogenated castor oil. “PE-91” is Phosal 53 MCT™+ethanol, 9:1 by volume. “LOT-343” is Labrafil M 1944 CS™+oleic acid+Tween 80™, 30:40:30 by weight.
In some cases, indicated in Table 4 by an asterisk (*), solubility was initially high but precipitation occurred upon standing.

[2] = Drug solubility in ternary excipient systems; type: physicochemical; parameters: key: ✓: vehicle miscible, or drug fully dissolved in vehicle; x: vehicle immiscible or miscible but turbid, or residual solids present (due to undissolved drug or precipitation); conditions: 10% salt, 20% free base, listed as free base
Source text: Solvents evaluated included Labrafil M 1944 CS™, Imwitor 742™, oleic acid, Capmul PG-8™, Capmul PG-12™, Lauroglycol 90™ (propylene glycol monolaurate, available from Gattefossé) and Phosal 53 MCT™. Surfactants evaluated included Tween 80™, Cremophor RH40™, Gelucire 44/14™ (polyoxyethylene glyceryl laurate, available from Gattefossé) and Labrasol™.

Bcl-2, sequence (P10415 whole entry): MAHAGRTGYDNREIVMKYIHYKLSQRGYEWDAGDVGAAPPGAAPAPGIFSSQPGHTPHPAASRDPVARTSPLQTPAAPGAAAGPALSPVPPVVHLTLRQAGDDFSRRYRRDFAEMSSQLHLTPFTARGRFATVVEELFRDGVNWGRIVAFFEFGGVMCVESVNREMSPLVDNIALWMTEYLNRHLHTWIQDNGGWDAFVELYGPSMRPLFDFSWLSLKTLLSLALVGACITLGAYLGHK
Bcl-XL, sequence (Q07817 whole entry): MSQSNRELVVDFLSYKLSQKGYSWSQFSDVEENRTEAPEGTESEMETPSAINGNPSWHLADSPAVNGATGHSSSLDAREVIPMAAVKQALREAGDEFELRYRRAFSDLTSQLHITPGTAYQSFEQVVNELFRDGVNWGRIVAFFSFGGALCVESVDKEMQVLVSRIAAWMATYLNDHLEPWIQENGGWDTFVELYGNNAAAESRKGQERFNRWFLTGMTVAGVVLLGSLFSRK

CN(C)CC[C@H](CSc1ccccc1)Nc1ccc(S(=O)(=O)NC(=O)c2ccc(N3CCN(Cc4ccccc4-c4ccc(Cl)cc4)CC3)cc2)cc1[N+](=O)[O-] [ABT-737]
binding affinity (Bcl-XL): < 1 nM | binding affinity (Bcl-2): < 1 nM | binding affinity (Bcl-w): < 1 nM

CC1(C)CCC(c2ccc(Cl)cc2)=C(CN2CCN(c3ccc(C(=O)NS(=O)(=O)c4ccc(N[C@H](CCN5CCOCC5)CSc5ccccc5)c(S(=O)(=O)C(F)(F)F)c4)cc3)CC2)C1 [ABT-263]
Solubility ([1]; in Labrafil M 2125 CS, ambient conditions): >290 mg/g | Solubility ([1]; in PE-91 (Phosal 53 MCT + ethanol 9:1 by volume), ambient conditions): >250 mg/g | Solubility ([1]; in PEG-400, ambient conditions): >200 mg/g | Solubility ([1]; in corn oil, ambient conditions): <86 mg/g | Solubility ([1]; in sesame oil, ambient conditions): <75 mg/g | ABT-263 solubility ([2]; Imwitor 742/Labrafil M 1944 CS/Cremophor RH40 (ILC) 40:40:20 % by weight): x | ABT-263 solubility ([2]; Imwitor 742/Labrafil M 1944 CS/Cremophor RH40 (ILC) 50:30:20 % by weight): x | ABT-263 solubility ([2]; Imwitor 742/Labrafil M 1944 CS/Cremophor RH40 (ILC) 50:40:10 % by weight): x | ABT-263 solubility ([2]; Imwitor 742/Labrafil M 1944 CS/Cremophor RH40 (ILC) 60:30:10 % by weight): x | ABT-263 solubility ([2]; Imwitor 742/Labrafil M 1944 CS/Labrasol (ILL) 40:40:20 % by weight): x | ABT-263 solubility ([2]; Imwitor 742/Labrafil M 1944 CS/Labrasol (ILL) 50:30:20 % by weight): x | ABT-263 solubility ([2]; Imwitor 742/Labrafil M 1944 CS/Labrasol (ILL) 50:40:10 % by weight): x | ABT-263 solubility ([2]; Imwitor 742/Labrafil M 1944 CS/Labrasol (ILL) 60:30:10 % by weight): x | ABT-263 solubility ([2]; Labrafil M 1944 CS/Imwitor 742/Tween 80 (LIT) 30:40:30 % by weight): x | ABT-263 solubility ([2]; Labrafil M 1944 CS/Imwitor 742/Tween 80 (LIT) 30:45:25 % by weight): x | ABT-263 solubility ([2]; Labrafil M 1944 CS/Imwitor 742/Tween 80 (LIT) 40:30:30 % by weight): x | ABT-263 solubility ([2]; Labrafil M 1944 CS/Imwitor 742/Tween 80 (LIT) 40:35:25 % by weight): x | ABT-263 solubility ([2]; Lauroglycol 90/Labrafil M 1944 CS/Labrasol (LLL) 50:40:10 % by weight): x | ABT-263 solubility ([2]; Lauroglycol 90/Labrafil M 1944 CS/Labrasol (LLL) 60:30:10 % by weight): x
